Data set [1] has as its system heartburn and GERD. Kind of data set: Conclusions on the use of the combination regimes. Format: in vivo, human. The settings on record: Omeprazole alone.
Data set [2] deals with GERD symptoms. The experiment in a line: Example 1: subject diagnosed with GERD, self-reported relief on omeprazole alone vs omeprazole plus ALA. In kind it is in vivo, human. The settings on record: scale of 1-10; 40 mg of omeprazole per day. The protocol: A middle aged subject diagnosed with GERD had been on the proton pump inhibitor omeprazole for approximately three years. The subject reported taking 40 mg of omeprazole per day to control symptoms of GERD. On a scale of 1-10, subject rated the effectiveness of omeprazole at 5. […] In accordance with the present disclosure, they began taking orally 20 mg of omeprazole and 400 mg of ALA on a daily basis. […] Subject rated effectives of regime of the present disclosure a 9 on a scale from 1-10. […] Additional study was undertaken to see to what extent the combination of proton pump inhibitor and ALA of the present disclosure would have on GERD and heartburn symptoms. The person was instructed to orally take 20 mg of omeprazole and 600 mg of ALA daily for 3 months. […] Other important facts were gathered from this 3-month study. The treatment regime is fast acting and generally will halt the symptoms of even the worst scenario of acid reflux in no more than 120 minutes. Continued relief is experienced for a minimum of 24 hours with no further oral intake of the combination regime. The participant reported eating regular foods with no more modified diet schemes. Foods such as pizza, spaghetti, chili, ice cream, pastrami, taco […] like, all once avoided, are now capable of being enjoyed at meal times.

Data set [3] relates to cell monolayer. The conditions noted are these: Transwell model; cited from earlier work.
The subject of data set [4] is intracellular glutathione (GSH). The conditions noted are these: variety of cell types and tissues; cited from earlier work.
Data set [5] has as its target T1, Na+-dependent multivitamin transporter (Homo sapiens, UniProt Q9Y289).
T1 sequence (Q9Y289 1-635): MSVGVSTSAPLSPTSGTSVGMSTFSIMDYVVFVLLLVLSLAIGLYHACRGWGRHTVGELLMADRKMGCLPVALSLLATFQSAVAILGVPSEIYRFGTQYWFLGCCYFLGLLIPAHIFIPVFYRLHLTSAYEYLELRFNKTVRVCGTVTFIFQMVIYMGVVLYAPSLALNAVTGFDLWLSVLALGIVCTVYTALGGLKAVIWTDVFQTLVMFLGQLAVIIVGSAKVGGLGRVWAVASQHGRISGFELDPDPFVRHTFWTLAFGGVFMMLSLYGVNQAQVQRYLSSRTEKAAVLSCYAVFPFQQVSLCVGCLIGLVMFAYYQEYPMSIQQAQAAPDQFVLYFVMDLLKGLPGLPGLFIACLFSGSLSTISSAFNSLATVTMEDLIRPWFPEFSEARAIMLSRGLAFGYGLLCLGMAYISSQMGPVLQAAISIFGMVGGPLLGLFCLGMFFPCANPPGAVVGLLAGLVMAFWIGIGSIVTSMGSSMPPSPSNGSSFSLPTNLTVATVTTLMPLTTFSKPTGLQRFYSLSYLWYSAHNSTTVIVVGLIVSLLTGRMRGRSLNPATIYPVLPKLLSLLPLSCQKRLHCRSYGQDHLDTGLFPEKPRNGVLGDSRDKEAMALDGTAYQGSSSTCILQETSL
The settings on record: in vitro; cited from earlier work.

This is an account of results in patent US11273145B2, “Compositions and methods for the treatment of acid-related gastrointestinal disorders containing a dithiolane compound and a gastric acid secretion inhibitor” (priority 2014, dated 2022).

SMILES strings stand for the structures.

For `COc1ccc2[nH]c([S+]([O-])Cc3ncc(C)c(OC)c3C)nc2c1` (centres unmarked) [omeprazole], in data set [1], the “time to elimination of GERD symptoms, on the average” value is reported as 2 days. Further, the “effectiveness rating by subject” value in data set [2] came to 5.

In the case of `O=C(O)CCCCC1CCSS1` (stereo not drawn) [ALA, Alpha-Lipoic Acid], the “transport across cell monolayer” value in data set [3] is on record as “rapidly traverses the cell monolayer in a pH-dependent manner”. In addition, the “effect on intracellular glutathione (GSH)” value in data set [4] was “markedly increases”. Further, the transporter substrate status entry in data set [5] is given as “substrate”.
